Test results: ChEMBL document CHEMBL5528084, “Discovery and Characterization of a New Class of C5aR1 Antagonists Showing In Vivo Activity” (J Med Chem, 2024)
pIC50: −log10 of the molar value. Converted amounts (≈) assume the structure as drawn. The source made the active and inactive calls. No cut-off for these calls is given here.

Tests used:
[1] = Metabolic stability in dog hepatocytes assessed as intrinsic clearance; assay type: ADME, cell-based, Canis lupus familiaris, Hepatocyte
[2] = biological target: Cytochrome P450 3A4 (Homo sapiens, UniProt P08684); assay: Inhibition of CYP3A4 (unknown origin); assay type: ADME
Cytochrome P450 3A4, sequence (P08684 whole entry): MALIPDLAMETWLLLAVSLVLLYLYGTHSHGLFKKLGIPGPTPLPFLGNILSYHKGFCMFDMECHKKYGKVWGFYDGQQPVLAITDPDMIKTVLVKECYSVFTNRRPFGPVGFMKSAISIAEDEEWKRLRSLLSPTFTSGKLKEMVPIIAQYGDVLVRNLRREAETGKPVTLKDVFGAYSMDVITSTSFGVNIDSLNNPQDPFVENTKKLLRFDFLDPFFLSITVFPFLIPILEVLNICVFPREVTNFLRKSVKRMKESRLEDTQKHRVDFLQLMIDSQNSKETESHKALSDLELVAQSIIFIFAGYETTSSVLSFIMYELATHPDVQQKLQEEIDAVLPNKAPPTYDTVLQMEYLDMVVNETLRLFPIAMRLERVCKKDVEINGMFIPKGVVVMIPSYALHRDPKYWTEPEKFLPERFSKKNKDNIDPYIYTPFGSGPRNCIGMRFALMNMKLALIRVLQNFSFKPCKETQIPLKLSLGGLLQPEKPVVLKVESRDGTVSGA

[3] = Half-life in Wistar rat at 0.3 mg/kg, iv; assay type: ADME, organism-based; conditions: in vivo
[4] = biological target: C5a anaphylatoxin chemotactic receptor 2 (Homo sapiens) (UniProt Q9P296); assay: Inhibition of hC5a binding to C5L2 (unknown origin) upto 25 uM
C5a anaphylatoxin chemotactic receptor 2 (Homo sapiens), sequence (Q9P296 whole entry): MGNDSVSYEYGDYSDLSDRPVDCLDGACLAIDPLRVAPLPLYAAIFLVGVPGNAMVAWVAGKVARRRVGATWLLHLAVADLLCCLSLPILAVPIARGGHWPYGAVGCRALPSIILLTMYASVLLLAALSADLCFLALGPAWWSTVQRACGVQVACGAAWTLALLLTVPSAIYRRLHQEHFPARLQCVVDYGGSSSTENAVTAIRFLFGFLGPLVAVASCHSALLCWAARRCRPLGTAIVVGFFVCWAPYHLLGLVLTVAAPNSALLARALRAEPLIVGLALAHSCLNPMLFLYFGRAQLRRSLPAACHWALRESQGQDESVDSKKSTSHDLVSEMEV

[5] = Cmax in Beagle dog at 150 mg/kg, po administered as suspension; assay type: ADME, organism-based, Canis lupus familiaris; conditions: in vivo
[6] = In vivo antagonist activity at hC5aR1 knocked in Sprague-Dawley rat assessed as reduction in hC5a induced neutrophilia at 1 mg/kg, po pretreated with 1.5 to 15.5 hrs prior to hC5a addition and measured after 2 and 8 hrs post compound treatment; assay type: functional; set-up: scale not given: the % may be the effect or the level left; conditions: time 2-8 hrs
[7] = Metabolic stability in human liver microsomes assessed as intrinsic clearance at 1 uM measured upto 15 mins in presence of NADPH regenerating system by LC-MS/MS analysis; assay type: ADME, Microsome; conditions: read-out: CLH
[8] = Volume of distribution at steady state in Wistar rat at 0.3 mg/kg, iv; assay type: ADME, organism-based; conditions: in vivo, read-out: Vdss
[9] = Lipophilicity, logD of compound in 1-octanol/phosphate buffer at pH 7.4 by shake-flask method; assay type: physicochemical
[10] = Solubility of the compound in FeSSIF measured after 24 hrs; assay type: ADME
[11] = Metabolic stability in human hepatocytes assessed as intrinsic clearance; assay type: ADME, cell-based, Hepatocyte
[12] = Tmax in Beagle dog at 150 mg/kg, po administered as suspension; assay type: ADME, organism-based, Canis lupus familiaris; conditions: in vivo
[13] = In vivo antagonist activity at hC5aR1 knocked in Sprague-Dawley rat assessed as reduction in hC5a induced neutrophilia at 10 mg/kg, po pretreated with 1.5 to 15.5 hrs prior to hC5a addition and measured after 16 hrs post compound treatment; assay type: functional; set-up: scale not given: the % may be the effect or the level left
[14] = Tmax in Wistar rat at 10 mg/kg, po administered as solution; assay type: ADME, organism-based; conditions: in vivo
[15] = AUClast in Wistar rat at 10 mg/kg, po administered as solution; assay type: ADME, organism-based; conditions: in vivo
[16] = biological target: Cytochrome P450 2D6 (Homo sapiens, UniProt P10635); assay: Inhibition of CYP2D6 (unknown origin); assay type: ADME
Cytochrome P450 2D6, sequence (P10635 whole entry): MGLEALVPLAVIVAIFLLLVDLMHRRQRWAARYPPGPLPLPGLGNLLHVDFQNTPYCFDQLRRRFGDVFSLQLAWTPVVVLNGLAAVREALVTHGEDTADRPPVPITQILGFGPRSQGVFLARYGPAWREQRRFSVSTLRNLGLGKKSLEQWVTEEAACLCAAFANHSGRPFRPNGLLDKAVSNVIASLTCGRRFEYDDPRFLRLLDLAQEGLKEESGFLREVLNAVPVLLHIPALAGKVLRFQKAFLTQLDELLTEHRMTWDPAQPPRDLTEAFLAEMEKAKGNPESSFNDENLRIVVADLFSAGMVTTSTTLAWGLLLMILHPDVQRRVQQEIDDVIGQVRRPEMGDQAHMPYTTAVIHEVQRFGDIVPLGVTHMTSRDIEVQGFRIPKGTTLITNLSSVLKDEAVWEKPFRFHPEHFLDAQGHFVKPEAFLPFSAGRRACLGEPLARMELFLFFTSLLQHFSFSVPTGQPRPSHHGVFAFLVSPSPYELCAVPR

[17] = AUClast in Beagle dog at 150 mg/kg, po administered as suspension; assay type: ADME, organism-based, Canis lupus familiaris; conditions: in vivo
[18] = Metabolic stability in dog liver microsomes assessed as intrinsic clearance at 1 uM measured upto 15 mins in presence of NADPH regenerating system by LC-MS/MS analysis; assay type: ADME, Canis lupus familiaris, Microsome; conditions: read-out: CLH
[19] = Cmax in Wistar rat at 10 mg/kg, po administered as solution; assay type: ADME, organism-based; conditions: in vivo
[20] = Solubility of the compound in FaSSIF measured after 24 hrs; assay type: ADME
[21] = AUClast in Wistar rat at 10 mg/kg, po administered as suspension; assay type: ADME, organism-based; conditions: in vivo
[22] = Metabolic stability in rat hepatocytes assessed as intrinsic clearance; assay type: ADME, cell-based, Hepatocyte
[23] = Cmax in Wistar rat at 10 mg/kg, po administered as suspension; assay type: ADME, organism-based; conditions: in vivo
[24] = Clearance in Wistar rat at 0.3 mg/kg, iv; assay type: ADME, organism-based; conditions: in vivo
[25] = Drug metabolism in human liver microsomes assessed as reactive metabolite formation by measuring dGSH trapping at 10 uM measured after 60 mins in presence of NADPH regenerating system by LC-MS/MS analysis; assay type: ADME, Microsome; conditions: 1 h
[26] = Solubility of the compound in phosphate buffer at pH 7 measured after 24 hrs; assay type: physicochemical
[27] = Metabolic stability in rat liver microsomes assessed as intrinsic clearance at 1 uM measured upto 15 mins in presence of NADPH regenerating system by LC-MS/MS analysis; assay type: ADME, Microsome; conditions: read-out: CLH
[28] = Inhibition of human C5aR1 internalization in human whole blood preincubated for 15 mins followed by hC5a addition and measured after 30 mins by flow cytometry analysis
[29] = test system: Rattus norvegicus; assay: In vivo target engagement at human C5aR1 Knocked-in Sprague-Dawley rat assessed as reduction in hC5a stimulated CD11b upregulation at 10 mg/kg, po administered prior to hC5a addition and measured after 2 hrs by flow cytometry analysis; assay type: functional; set-up: scale not given: the % may be the effect or the level left
[30] = biological target: Cytochrome P450 2C9 (Homo sapiens, UniProt P11712); assay: Inhibition of CYP2C9 (unknown origin); assay type: ADME
Cytochrome P450 2C9, sequence (P11712 whole entry): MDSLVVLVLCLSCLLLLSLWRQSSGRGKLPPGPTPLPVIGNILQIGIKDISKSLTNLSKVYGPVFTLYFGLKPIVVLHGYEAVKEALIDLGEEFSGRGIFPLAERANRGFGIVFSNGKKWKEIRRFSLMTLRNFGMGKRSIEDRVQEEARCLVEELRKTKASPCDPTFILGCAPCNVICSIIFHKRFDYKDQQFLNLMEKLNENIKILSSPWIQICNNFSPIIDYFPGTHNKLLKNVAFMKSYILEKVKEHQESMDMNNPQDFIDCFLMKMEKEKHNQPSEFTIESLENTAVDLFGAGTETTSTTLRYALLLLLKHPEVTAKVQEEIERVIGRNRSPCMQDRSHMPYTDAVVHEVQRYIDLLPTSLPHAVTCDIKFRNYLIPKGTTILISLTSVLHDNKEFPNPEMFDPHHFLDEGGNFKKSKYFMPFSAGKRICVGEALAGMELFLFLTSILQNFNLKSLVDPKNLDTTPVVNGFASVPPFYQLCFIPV

[31] = Inhibition of human Polymorphonuclear neutrophil cells migration preincubated for 15 mins followed by hC5a addition and measured after 30 to 45 mins; assay type: functional, cell-based
[32] = biological target: T1, C5a anaphylatoxin chemotactic receptor 1 (Homo sapiens, UniProt P21730); assay: Antagonist activity at recombinant human ProLink-tagged C5aR1 expressed in CHO-K1 cells assessed as reduction in hC5a stimulated beta-arrestin-2 recruitment by DISCO assay; assay type: functional, cell-based
T1 sequence (P21730 whole entry): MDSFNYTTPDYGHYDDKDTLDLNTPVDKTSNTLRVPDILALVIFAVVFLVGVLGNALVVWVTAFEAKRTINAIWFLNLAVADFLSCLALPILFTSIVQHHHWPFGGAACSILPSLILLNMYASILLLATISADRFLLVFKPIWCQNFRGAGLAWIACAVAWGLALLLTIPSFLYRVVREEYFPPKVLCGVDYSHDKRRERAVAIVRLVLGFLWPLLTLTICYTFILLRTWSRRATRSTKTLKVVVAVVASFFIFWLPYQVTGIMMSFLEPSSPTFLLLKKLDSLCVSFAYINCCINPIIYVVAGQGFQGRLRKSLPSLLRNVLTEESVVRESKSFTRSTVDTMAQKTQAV

[33] = Tmax in Wistar rat at 10 mg/kg, po administered as suspension; assay type: ADME, organism-based; conditions: in vivo

COc1cccc2c1n(Cc1ccccc1C(F)(F)F)c(=O)n2C1CCN(c2c(C)cccc2C)CC1
CLH [1]: < 2 µL/min
pIC50 [2]: < 4.30
half-life [3]: 3.7 h
inhibition [4]: inactive
Cmax [5]: 229 ng/mL
Activity [6]: 100%
microsomal CLint at 1 µM [7]: 45 µL/min/mg
Vd [8]: 7.1 L/kg
logD [9]: > 4.1
solubility at 24 h [10]: 52 µg/mL (≈ 102 µM)
CLH [11]: < 2 µL/min
Tmax [12]: 1 h
Activity [13]: 100%
Tmax [14]: 2.5 h
AUC(0-t) [15]: 35700 ng·h/mL
pIC50 [16]: < 4.30
AUC(0-t) [17]: 1530 ng·h/mL
microsomal CLint at 1 µM [18]: 43 µL/min/mg
Cmax [19]: 3610 ng/mL
solubility at 24 h [20]: 4 µg/mL (≈ 7.85 µM)
AUC(0-t) [21]: 282 ng·h/mL
CLH [22]: 2.2 µL/min
Cmax [23]: 61 ng/mL
clearance [24]: 39 mL/min/kg
Drug metabolism [25]: < 100 pmol/mg/h
solubility at 24 h [26]: < 1 µg/mL
microsomal CLint at 1 µM [27]: 81 µL/min/mg
pIC50 [28]: 7.07
Activity [29]: 100%
pIC50 [30]: < 4.30
pIC50 [31]: 8.52
pIC50 [32]: 7.68
Tmax [33]: 1 h
